Columns and labels:
monkey MCL1 = target: T1, monkey MCL1 (Macaca mulatta, UniProt F7HUE9); test: TR-FRET binding assay, MCL-1 orthologs; set-up: species or system Monkey Macaca sp.
T1 construct: rhesus monkey (iso4, NM_001 1089 3 7, AA 171-327); made in house; host or cells: E. coli BL21(DE3)-T1R
Protocol: Binding affinities for MCL-1, BCL-2, BCL-XL, BCL-W, and BCL2-A1 were determined using a time-resolved fluorescence resonance energy transfer (FRET) assay. Test compounds were serially diluted in DMSO starting at […] (20× starting concentration; 100% DMSO followed by a 1:10 dilution of the compound DMSO plate into assay buffer); 10 µL of the compound in 10% DMSO was then transferred into a 384-well plate (low-volume Corning #3673 assay plate). Glutathione S-transferase (GST)-tagged recombinant BCL-2, BCL-XL, MCL-1, BCL-W, or BCL2-A1 protein (1 nM each) were mixed with 100 nM Oregon Green™-labeled f-BAK peptide probe and 1 nM Tb-labeled anti-GST antibody were mixed. Then 10 µL of a 2× protein/probe/antibody mix was added to each well of increasing concentrations of test compound in assay buffer (20 mM potassium phosphate, pH 7.6, 50 mM NaCl, 1 mM ethylenediaminetetraacetic acid disodium salt dihydrate, 0.05% pluronic acid F-68, 1 mM DL-dithiothreitol) at room temperature (final concentrations listed in Supplementary Table S2). […] Fluorescence was measured on the EnVision™ (Perkin Elmer) using a 340/35-nm excitation filter and 520/525- (F-Bak) and 495/510-nm (Tb-labeled anti-glutathione S-transferase [GST] antibody) emission filters. Dissociation constants were determined using Wang’s equation[35]. […]
Amino acid sequence homology determined with NCBI BLAST (http://blast.ncbi.nlm.nih.gov). […]

NCI-H929 xenografts = test: NCI-H929 xenograft efficacy (tumor volume, survival); assay type: in vivo; conditions: single dose […]
Protocol: All animal studies were conducted in accordance with the guidelines approved by the Institutional Animal Care and Use Committees of AbbVie. The research protocol was approved by In Vivo Pharmacology at AbbVie prior to study initiation but was not publicly registered or disclosed. Female C.B-17 SCID-beige mice (AMO-1, OPM-2, NCI-H929, and OCI-AML2 xenografts) and female NSG mice (MV4-11-Red.Fluc systemic) were purchased from Charles River Laboratories (Wilmington, MA). Animals were housed in a light cycle-controlled room with HEPA filtration at 22 °C. Animals had nesting and climbing cage topper as the primary environmental enrichment. […] All xenograft trials were conducted using 5 to 10 mice per group, and all mice were ear tagged and monitored individually throughout the studies. […] Tumor burden in the systemic MV4-11-Red.Fluc experiment was measured using an IVIS® spectrum from PerkinElmer by taking the total photon flux of the entire dorsal side of an individual mouse. […]
For in vivo studies, maximal tumor growth inhibition (TGI) was calculated as the greatest treatment response using the following equation: Maximal TGI = (1 − mean tumor volume of the treated group/mean tumor volume of the vehicle control group) × 100. […] Data from experiments in vivo were analyzed using the student’s t-test for TGI values and the Mann–Whitney U test for TGD using Excel and GraphPad Prism. […]

T1 sequence (F7HUE9 171-327): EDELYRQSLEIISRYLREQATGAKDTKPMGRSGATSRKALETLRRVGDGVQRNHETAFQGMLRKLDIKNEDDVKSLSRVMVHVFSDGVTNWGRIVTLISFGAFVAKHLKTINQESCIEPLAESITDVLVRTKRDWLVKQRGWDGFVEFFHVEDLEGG

SMILES: Cc1c(Cl)c2c(Cl)c(C)c1-c1c(-c3ccc(F)cc3)sc3ncnc(c13)O[C@@H](C(=O)O)Cc1cc(ccc1OCc1ccnc(-c3ccc(OC[C@H]4COCCO4)cc3)n1)OC[C@@H](CN1CCN(C)CC1)O2 [ABBV-467]
- Ki (monkey MCL1): < 0.1 nM
- mice with tumors remaining below 1000 mm^3 until 250 days post-treatment (NCI-H929 xenografts): 40%

From PMC10600239, “Selective MCL-1 inhibitor ABBV-467 is efficacious in tumor models but is associated with cardiac troponin increases in patients” (Communications Medicine, 2023)
